# Columns and labels:
# HSV-1 = HSV-1 replication in infected Vero 76 cells, DNA hybridization capture assay; format: cell-based, herpes simplex virus 1; conditions: Human alphaherpesvirus 1; HSV-1 in Vero 76 cells, MOI=0.001, 40-48 hours at 37° C.; read-out: IC50
# Method: a) Tissue Culture and HSV Infection.
# Vero 76 cells were maintained in MEM with Earle's salts, L-glutamine, 8% FBS (Hyclone, A-1111-L) and 100 units/mL Penicillin-100 μg/mL Streptomycin. For assay conditions, FBS was reduced to 2%. Cells are seeded into 96-well tissue culture plates at a density of 5×10^4 cells/well after being incubated for 45 min at 37° C. in the presence of HSV-1 or HSV-2 (MOI=0.001). Test compounds are added to the wells and the plates are incubated at 37° C. for 40-48 hours. Cell lysates are prepared as follows: media was removed and replaced with 150 μL/well 0.2 N NaOH with 1% Igepal CA 630 or NP-40. Plates were incubated up to 14 days at room temperature in a humidified chamber to prevent evaporation.
# (b) Preparation of Detection DNA.
# For the detection probe, a gel-purified, digoxigenin-labeled, […] PCR fragment of the HSV UL-15 sequence was utilized. PCR conditions included 0.5 μM primers, 180 μM dTTP, 20 μM dUTP-digoxigenin (Boehringer Mannheim 1558706), 200 μM each of dATP, dCTP, and dGTP, 1×PCR Buffer II (Perkin Elmer), 2.5 mM MgCl2, 0.025 units/μL of AmpliTaq Gold polymerase (Perkin Elmer), and 5 ng of gel-purified HSV DNA per 100 μL Extension conditions were 10 min at 95° C., followed by 30 cycles of 95° C. for 1 min, 55° C. for 30 sec, and 72° C. for 2 min. The amplification was completed with a 10-min incubation at 72° C. Primers were selected to amplify a 728 bp probe spanning a section of the HSV1 UL15 open reading frame (nucleotides 249-977). Single-stranded transcripts were purified with Promega M13 Wizard kits. The final product was mixed 1:1 with a mixture of 6 M GuSCN, 100 mM EDTA and 200 μg/mL herring sperm DNA and stored at 4° C.
# (c) Preparation of Capture Plates.
# The capture DNA plasmid (HSV UL13 region in pUC) was linearized by cutting with Xba I, denatured for 15 min at 95° C. and diluted immediately into Reacti-Bind DNA Coating Solution (Pierce, 17250, diluted 1:1 with TE buffer, pH 8) at 1 ng/μL. 75 μL/well were added to Corning (#3922 or 9690) white 96-well plates and incubated at room temperature for at least 4 hrs before washing twice with 300 μL/well 0.2×SSC/0.05% Tween-20 (SSC/T buffer). The plates were then incubated overnight at room temperature with 150 μL/well 0.2 N NaOH, 1% IGEPAL and 10 μg/mL herring sperm DNA.
# Twenty-seven (27) μL of cell lysate was combined with 45 μL of hybridization solution (final concentration: 3M GuSCN, 50 mM EDTA, 100 μg/ml salmon sperm DNA, 5×Denhardt's solution, 0.25×APE, and 5 ng of the digoxigenin-labeled detection probe). APE is 1.5 M NH4-acetate, 0.15 M NH4H2 phosphate, and 5 mM EDTA adjusted to pH 6.0. Mineral oil (50 μL) was added to prevent evaporation. The hybridization plates were incubated at 95° C. for 10 minutes to denature the DNA, then incubated at 42° C. overnight. The wells were washed 6× with 300 μL/well SSC/T buffer then incubated with 75 μL/well anti-digoxigenin-HRP-conjugated antibody (Boehringer Mannheim 1207733, 1:5000 in TE) for 30 min at room temperature. The wells were washed 6× with 300 μL/well with PBS/0.05% Tween-20 before 75 μL/well SuperSignal LBA substrate (Pierce) was added. The plates were incubated at room temperature for 30 minutes and chemiluminescence was measured in a Wallac Victor reader.
# The following results were obtained for HSV-1.
SMILES,melting point,IC50 (HSV-1)
"CCOC(=O)c1ccc2c(-c3ccnc(NC4CCCC4)n3)c(-c3ccc(F)cc3)nn2c1C [Example 81, Ethyl 3-[2-(cyclopentylamino)-4-pyrimidinyl]-2-(4-fluorophenyl)-7-methylpyrazolo[1,5-a]pyridine-6-carboxylate]",155 to 156 °C,–
"CSc1nccc(-c2c(-c3ccc(F)cc3)nn3c(OCC(F)(F)F)cccc23)n1 [Example 59, 2-(4-Fluorophenyl)-3-(4-(2-methylthio)pyrimidinyl)-7-(2,2,2-trifluoroethoxy)pyrazolo[1,5-a]pyridine]",–,10 µM
"CCCCCCCCc1cccc2c(-c3ccnc(NCCCC)n3)c(-c3ccc(F)cc3)nn12 [Example 86, N-Butyl-4-[2-(4-fluorophenyl)-7-octylpyrazolo[1,5-a]pyridin-3-yl]-2-pyrimidinamine]",–,6 µM
"Fc1ccc(-c2nn3cc(C(F)(F)F)ccc3c2-c2ccnc(NCC(F)(F)F)n2)cc1 [Example 22, 4-[2-(4-Fluorophenyl)-6-trifluoromethylpyrazolo[1,5-a]pyridin-3-yl]-N-(2,2,2-trifluoroethyl)-2-pyrimidinamine]",–,4.3 µM
"NCCCNc1cc(-c2c(-c3ccc(F)cc3)nn3cc(Br)ccc23)ccn1 [Example 15, N-(3-Aminopropyl)-4-[6-bromo-2-(4-fluorophenyl)-pyrazolo[1,5-a]pyridin-3-yl]-2-pyridinamine]",–,4 µM
"OCCCNc1cc(-c2c(-c3ccc(F)cc3)nn3ccccc23)c(Br)cn1 [Example 44, 3-({5-Bromo-4-[2-(4-fluorophenyl)-pyrazolo[1,5-a]pyridin-3-yl]-2-pyridinyl}amino)-1-propanol]",–,6.3 µM
"COc1ccc(-c2nn3cc(C(F)(F)F)ccc3c2-c2ccnc(NC3CC3)n2)cc1 [Example 95, N-Cyclopropyl-4-[2-(4-methoxyphenyl)-6-(trifluoromethyl)pyrazolo[1,5-a]pyridin-3-yl]pyrimidin-2-amine]",–,27 µM
"Nc1nccc(-c2c(-c3ccc(F)cc3)nn3cc(C(F)(F)F)ccc23)n1 [Example 19, 4-[2-(4-Fluorophenyl)-6-trifluoromethylpyrazolo[1,5-a]pyridin-3-yl]-2-pyrimidinamine]",–,> 40 µM
"C=CCNc1cc(-c2c(-c3ccc(F)cc3)nn3ccccc23)ccn1 [Example 42, N-Allyl-4-[2-(4-fluorophenyl)pyrazolo-[1,5-a]pyridin-3-yl]-2-pyridinamine]",–,5 µM

# Continued by falling IC50 (HSV-1), values first:
melting point,IC50 (HSV-1),SMILES
–,3.8 µM,"COc1ccc(-c2nn3ccc(Cl)cc3c2-c2ccnc(NC3CCCC3)n2)cc1 [Example 38, 4-[5-Chloro-2-(4-methoxyphenyl)pyrazolo[1,5-a]pyridin-3-yl]-N-cyclopentyl-2-pyrimidinamine]"
–,3 µM,"CCc1cccc2c(-c3ccnc(NC4CC4)n3)c(-c3ccc(F)cc3)nn12 [Example 87, N-Cyclopropyl-4-[7-ethyl-2-(4-fluorophenyl)pyrazolo[1,5-a]pyridin-3-yl]-2-pyrimidinamine]"
155 to 156 °C,2.5 µM,"OCc1ccc2c(-c3ccnc(NC4CCCC4)n3)c(-c3ccc(F)cc3)nn2c1 [Example 33, [3-[2-(Cyclopentylamino)-4-pyrimidinyl]-2-(4-fluorophenyl)pyrazolo-[1,5-a]pyridin-6-yl]methanol]"
–,2 µM,"Fc1ccc(-c2nn3c(OCC(F)(F)F)cccc3c2-c2ccnc(NC3CC3)n2)cc1 [Example 62, N-Cyclopropyl-4-[2-(4-fluorophenyl)-7-(2,2,2-trifluoroethoxy)pyrazolo [1,5-a]pyridin-3-yl]-2-pyrimidinamine]"
–,1.7 µM,"CCCCNc1nccc(-c2c(-c3ccc(F)cc3)nn3cc(C(F)(F)F)ccc23)n1 [Example 31, N-Butyl-4-[2-(4-fluorophenyl)-6-trifluoromethylpyrazolo-[1,5-a]pyridin-3-yl]-2-pyrimidinamine]"
–,1.5 µM,"CC(C)Nc1nccc(-c2c(-c3ccc(F)cc3)nn3ccccc23)n1 [Example 17, 4-[2-(4-Fluorophenyl)pyrazolo[1,5-a]pyridin-3-yl]-N-(2-propyl)-2-pyrimidinamine]"
–,1 µM,"CSc1cc(Cl)cc2c(-c3ccnc(NC4CCCC4)n3)c(-c3cccc(Cl)c3)nn12 [Example 229, 4-[5-Chloro-2-(3-chlorophenyl)-7-(methylsulfanyl)pyrazolo[1,5-a]pyridin-3-yl]-N-cyclopentyl-2-pyrimidinamine]"
–,0.8 µM,"Fc1ccc(-c2nn3cc(C(F)(F)F)ccc3c2-c2ccnc(NC3CC3)n2)cc1 [Example 21, N-Cyclopropyl-4-[2-(4-fluorophenyl)-6-trifluoromethylpyrazolo[1,5-a]pyridin-3-yl]-2-pyrimidinamine]"
–,0.15 µM,"Fc1ccc(-c2nn3ccccc3c2-c2ccnc(NCCc3cnc[nH]3)n2)cc1 [Example 26, 4-[2-(4-Fluorophenyl)pyrazolo[1,5-a]pyridin-3-yl]-N-[2-(1H-imidazol-5-yl)ethyl]-2-pyrimidinamine]"
